Like-named read-outs stand apart in the source and are kept apart here.
What was measured:
Assay type in all cases: biochemical
MLK3 = MLK3 (Homo sapiens, UniProt Q16584); assay: Kinase profiling MLK3; details: for remaining activity at 100 µM: read-out: residual kinase activity, MLK3
From the text: (§1) Any value less that 25 is considered to be highly significant inhibition.

MSK1 = MSK1 (Homo sapiens, UniProt O75582); assay: Kinase profiling MSK1; details: for remaining activity at 100 µM: read-out: residual kinase activity, MSK1
From the text: as §1

PKCγ = PKCγ (Homo sapiens, UniProt P05129); assay: Kinase profiling PKCγ; details: for residual kinase activity, PKCγ: 100 micromolar inhibitor concentration, 100 is no change
From the text: as §1

S6K1 = S6K1 (Homo sapiens, UniProt P23443); assay: Kinase profiling S6K1; details: for remaining activity at 100 µM: read-out: residual kinase activity, S6K1
From the text: as §1

PKCz = molecular target: T1, PKCz (Homo sapiens, UniProt Q05513); assay: Kinase profiling PKCz; details: for residual kinase activity, PKCz: 100 micromolar inhibitor concentration, 100 is no change
T1 sequence (Q05513 1-592): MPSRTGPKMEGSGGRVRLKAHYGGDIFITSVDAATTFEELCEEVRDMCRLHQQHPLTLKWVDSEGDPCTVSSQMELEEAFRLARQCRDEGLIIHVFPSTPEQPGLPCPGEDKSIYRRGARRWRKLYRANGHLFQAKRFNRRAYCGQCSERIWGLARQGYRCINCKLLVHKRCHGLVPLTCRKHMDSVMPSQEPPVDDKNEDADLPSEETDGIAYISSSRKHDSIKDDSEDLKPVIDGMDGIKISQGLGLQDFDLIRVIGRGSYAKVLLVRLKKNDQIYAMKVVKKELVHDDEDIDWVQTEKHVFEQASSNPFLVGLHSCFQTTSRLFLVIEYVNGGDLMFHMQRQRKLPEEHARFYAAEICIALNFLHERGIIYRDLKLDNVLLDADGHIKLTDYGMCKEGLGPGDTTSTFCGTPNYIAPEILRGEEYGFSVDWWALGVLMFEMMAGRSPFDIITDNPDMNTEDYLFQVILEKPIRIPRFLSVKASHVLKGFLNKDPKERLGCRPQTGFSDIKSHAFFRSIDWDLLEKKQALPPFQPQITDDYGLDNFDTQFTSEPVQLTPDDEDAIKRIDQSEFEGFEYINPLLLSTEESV
From the text: as §1

LKB1 = molecular target: T2, LKB1 (Homo sapiens, UniProt Q15831); assay: Kinase profiling LKB1; details: for remaining activity at 100 µM: read-out: residual kinase activity, LKB1
T2 sequence (Q15831 1-433): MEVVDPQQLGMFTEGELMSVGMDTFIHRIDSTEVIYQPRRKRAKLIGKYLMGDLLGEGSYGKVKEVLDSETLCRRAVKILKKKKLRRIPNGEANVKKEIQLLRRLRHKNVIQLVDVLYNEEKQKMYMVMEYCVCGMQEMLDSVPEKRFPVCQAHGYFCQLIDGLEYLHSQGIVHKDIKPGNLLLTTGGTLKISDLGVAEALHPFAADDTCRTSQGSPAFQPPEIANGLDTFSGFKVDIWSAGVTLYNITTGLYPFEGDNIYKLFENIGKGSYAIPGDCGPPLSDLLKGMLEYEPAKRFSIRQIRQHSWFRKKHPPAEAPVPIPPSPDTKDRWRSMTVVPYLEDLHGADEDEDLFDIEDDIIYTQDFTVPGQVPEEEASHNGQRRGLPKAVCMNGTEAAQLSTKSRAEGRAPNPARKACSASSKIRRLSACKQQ
T2 sequence (Q7RTN6 1-431 partner): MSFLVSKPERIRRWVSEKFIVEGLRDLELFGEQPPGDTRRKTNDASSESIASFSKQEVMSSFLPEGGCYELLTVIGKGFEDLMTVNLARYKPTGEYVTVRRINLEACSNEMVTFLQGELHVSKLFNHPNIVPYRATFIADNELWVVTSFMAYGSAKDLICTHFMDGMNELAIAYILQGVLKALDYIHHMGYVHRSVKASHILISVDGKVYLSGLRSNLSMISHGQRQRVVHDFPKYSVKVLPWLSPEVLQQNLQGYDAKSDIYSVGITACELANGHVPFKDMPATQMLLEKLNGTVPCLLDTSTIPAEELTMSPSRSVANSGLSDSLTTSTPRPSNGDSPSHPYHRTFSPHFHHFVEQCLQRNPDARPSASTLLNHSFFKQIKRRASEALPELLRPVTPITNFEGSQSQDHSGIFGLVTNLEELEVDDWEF
T2 sequence (Q9Y376 1-341 partner): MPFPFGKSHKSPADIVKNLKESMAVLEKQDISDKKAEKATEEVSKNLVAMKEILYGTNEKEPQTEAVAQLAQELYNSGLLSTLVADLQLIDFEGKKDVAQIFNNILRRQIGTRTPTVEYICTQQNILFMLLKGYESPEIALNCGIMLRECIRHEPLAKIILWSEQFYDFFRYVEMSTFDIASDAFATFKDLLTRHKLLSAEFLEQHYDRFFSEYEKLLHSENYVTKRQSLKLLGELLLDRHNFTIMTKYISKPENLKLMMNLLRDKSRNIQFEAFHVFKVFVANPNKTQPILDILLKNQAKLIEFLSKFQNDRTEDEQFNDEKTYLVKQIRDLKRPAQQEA
From the text: as §1

TrkA = TrkA (Homo sapiens, UniProt P04629); assay: Kinase profiling TrkA; details: for remaining activity at 100 µM: read-out: residual kinase activity, TrkA
From the text: as §1

MKK2 = MKK2 (Homo sapiens, UniProt P36507); assay: Kinase profiling MKK2; details: for residual kinase activity, MKK2: 100 micromolar inhibitor concentration, 100 is no change
From the text: as §1

ROCK 2 = ROCK 2 (Homo sapiens, UniProt O75116); assay: Kinase profiling ROCK 2; details: for remaining activity at 100 µM: read-out: residual kinase activity, ROCK 2
From the text: as §1

PRK2 = PRK2 (Homo sapiens, UniProt Q16513); assay: Kinase profiling PRK2; details: for remaining activity at 100 µM: read-out: residual kinase activity, PRK2
From the text: as §1

NEK6 = NEK6 (Homo sapiens, UniProt Q9HC98); assay: Kinase profiling NEK6; details: for remaining activity at 100 µM: read-out: residual kinase activity, NEK6
From the text: as §1

p38b MAPK = p38b MAPK (Homo sapiens, UniProt Q15759); assay: Kinase profiling p38b MAPK; details: for residual kinase activity, p38b MAPK: 100 micromolar inhibitor concentration, 100 is no change
From the text: as §1

SRPK1 = SRPK1 (Homo sapiens, UniProt Q96SB4); assay: Kinase profiling SRPK1; details: for remaining activity at 100 µM: read-out: residual kinase activity, SRPK1
From the text: as §1

HER4 = HER4 (Homo sapiens, UniProt Q15303); assay: Kinase profiling HER4; details: for remaining activity at 100 µM: read-out: residual kinase activity, HER4
From the text: as §1

TAK1 = molecular target: T3, TAK1 (Homo sapiens, UniProt O43318); assay: Kinase profiling TAK1; details: for remaining activity at 100 µM: read-out: residual kinase activity, TAK1
T3 sequence (O43318 1-303 limits assumed): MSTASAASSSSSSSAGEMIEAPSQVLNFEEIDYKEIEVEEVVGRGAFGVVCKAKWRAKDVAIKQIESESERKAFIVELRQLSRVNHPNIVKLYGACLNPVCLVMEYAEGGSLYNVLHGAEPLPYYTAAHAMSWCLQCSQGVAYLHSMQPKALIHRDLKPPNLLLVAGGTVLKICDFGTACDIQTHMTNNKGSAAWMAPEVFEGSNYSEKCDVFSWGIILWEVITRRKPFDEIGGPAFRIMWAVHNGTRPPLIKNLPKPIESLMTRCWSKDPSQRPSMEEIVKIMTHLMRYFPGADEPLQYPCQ
T3 sequence (Q15750 437-504 partner limits assumed): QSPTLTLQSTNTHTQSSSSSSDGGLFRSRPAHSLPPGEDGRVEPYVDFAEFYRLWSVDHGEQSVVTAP
From the text: as §1

[1] = 100 micromolar inhibitor concentration, 100 is no change
[2] = 100 micromolar inhibitor, 100 = no change

Chain of MLK3 (Q16584 whole entry, species assumed): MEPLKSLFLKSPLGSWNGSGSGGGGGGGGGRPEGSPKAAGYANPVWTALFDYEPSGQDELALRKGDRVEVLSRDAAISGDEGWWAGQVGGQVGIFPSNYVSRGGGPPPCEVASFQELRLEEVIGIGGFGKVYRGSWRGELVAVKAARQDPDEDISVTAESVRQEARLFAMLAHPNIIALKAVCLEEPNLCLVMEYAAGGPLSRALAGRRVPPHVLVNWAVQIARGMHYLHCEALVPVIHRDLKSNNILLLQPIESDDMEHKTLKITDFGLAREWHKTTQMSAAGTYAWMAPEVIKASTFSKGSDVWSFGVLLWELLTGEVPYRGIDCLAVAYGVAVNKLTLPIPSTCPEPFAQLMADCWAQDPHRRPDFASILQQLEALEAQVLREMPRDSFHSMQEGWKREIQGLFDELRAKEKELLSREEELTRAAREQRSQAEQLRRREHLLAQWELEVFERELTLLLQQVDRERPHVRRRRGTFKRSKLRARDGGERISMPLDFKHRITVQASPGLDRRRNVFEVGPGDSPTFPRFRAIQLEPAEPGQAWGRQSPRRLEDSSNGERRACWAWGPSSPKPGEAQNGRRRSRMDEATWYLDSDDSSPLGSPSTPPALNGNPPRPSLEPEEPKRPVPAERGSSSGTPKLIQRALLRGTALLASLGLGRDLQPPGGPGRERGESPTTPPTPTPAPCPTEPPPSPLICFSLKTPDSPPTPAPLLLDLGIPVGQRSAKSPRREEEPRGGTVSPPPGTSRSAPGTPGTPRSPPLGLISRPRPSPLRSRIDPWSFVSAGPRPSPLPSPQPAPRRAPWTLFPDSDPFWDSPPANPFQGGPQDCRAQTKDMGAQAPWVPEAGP
Chain of p38b MAPK (Q15759 whole entry): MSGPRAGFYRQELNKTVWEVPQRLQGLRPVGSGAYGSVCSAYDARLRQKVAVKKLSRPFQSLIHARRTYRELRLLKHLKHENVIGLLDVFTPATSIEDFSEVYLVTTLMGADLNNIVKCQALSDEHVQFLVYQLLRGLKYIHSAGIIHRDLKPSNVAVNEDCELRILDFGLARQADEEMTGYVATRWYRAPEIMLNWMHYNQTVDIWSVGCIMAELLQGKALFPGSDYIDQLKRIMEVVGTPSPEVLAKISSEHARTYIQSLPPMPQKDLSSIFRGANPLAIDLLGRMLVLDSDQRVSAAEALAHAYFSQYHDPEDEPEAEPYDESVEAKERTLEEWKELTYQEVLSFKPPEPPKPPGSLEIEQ
Chain of NEK6 (Q9HC98 whole entry, species assumed): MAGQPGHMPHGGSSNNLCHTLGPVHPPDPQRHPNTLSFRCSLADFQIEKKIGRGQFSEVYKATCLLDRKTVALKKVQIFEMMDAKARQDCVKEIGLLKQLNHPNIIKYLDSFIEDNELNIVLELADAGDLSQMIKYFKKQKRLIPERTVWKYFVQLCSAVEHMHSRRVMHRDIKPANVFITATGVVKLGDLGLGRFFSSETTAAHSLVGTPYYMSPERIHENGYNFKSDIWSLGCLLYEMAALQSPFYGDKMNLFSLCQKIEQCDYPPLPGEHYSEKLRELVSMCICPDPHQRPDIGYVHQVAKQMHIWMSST
Chain of MSK1 (O75582 whole entry, species assumed): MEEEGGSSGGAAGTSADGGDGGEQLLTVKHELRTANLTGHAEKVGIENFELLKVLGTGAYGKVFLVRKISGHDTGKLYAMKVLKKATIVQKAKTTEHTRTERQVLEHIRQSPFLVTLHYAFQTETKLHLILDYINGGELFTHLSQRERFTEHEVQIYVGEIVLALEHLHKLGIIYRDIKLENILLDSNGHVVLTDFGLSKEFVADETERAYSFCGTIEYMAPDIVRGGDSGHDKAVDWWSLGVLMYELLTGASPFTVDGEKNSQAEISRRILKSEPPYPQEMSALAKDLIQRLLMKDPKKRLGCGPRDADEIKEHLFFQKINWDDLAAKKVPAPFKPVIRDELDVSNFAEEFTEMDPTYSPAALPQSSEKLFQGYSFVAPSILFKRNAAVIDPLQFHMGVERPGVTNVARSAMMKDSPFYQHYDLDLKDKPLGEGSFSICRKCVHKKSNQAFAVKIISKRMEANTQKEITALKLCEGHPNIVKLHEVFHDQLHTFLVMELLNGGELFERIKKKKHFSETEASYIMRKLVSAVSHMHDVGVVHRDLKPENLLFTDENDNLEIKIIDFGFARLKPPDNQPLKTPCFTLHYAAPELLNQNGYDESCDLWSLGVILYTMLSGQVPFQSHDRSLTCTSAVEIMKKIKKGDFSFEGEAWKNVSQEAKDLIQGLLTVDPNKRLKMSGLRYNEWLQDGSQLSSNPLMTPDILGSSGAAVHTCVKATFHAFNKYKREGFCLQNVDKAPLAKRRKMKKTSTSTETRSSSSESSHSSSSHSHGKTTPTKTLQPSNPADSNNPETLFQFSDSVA
Chain of TrkA (P04629 33-796, species assumed): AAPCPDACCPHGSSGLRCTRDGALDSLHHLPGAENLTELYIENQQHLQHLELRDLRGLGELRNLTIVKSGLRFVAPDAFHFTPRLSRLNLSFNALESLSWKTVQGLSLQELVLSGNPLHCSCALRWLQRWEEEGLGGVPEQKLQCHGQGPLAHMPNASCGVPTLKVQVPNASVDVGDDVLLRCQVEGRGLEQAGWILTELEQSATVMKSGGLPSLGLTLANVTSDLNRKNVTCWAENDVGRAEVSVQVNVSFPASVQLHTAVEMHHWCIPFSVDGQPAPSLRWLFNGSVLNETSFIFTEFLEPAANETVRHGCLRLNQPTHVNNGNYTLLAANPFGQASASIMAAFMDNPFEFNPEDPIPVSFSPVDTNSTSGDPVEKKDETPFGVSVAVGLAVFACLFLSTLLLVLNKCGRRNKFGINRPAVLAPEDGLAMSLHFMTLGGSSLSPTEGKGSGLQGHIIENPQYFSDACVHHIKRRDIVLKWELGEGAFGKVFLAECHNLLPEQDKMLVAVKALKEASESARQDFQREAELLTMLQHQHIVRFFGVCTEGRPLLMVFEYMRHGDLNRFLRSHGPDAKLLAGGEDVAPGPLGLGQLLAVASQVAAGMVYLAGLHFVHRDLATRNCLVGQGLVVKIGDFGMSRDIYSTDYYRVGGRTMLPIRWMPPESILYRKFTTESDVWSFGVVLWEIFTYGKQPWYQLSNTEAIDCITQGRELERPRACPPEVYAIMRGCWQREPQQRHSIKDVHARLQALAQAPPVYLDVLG
Chain of PRK2 (Q16513 whole entry, species assumed): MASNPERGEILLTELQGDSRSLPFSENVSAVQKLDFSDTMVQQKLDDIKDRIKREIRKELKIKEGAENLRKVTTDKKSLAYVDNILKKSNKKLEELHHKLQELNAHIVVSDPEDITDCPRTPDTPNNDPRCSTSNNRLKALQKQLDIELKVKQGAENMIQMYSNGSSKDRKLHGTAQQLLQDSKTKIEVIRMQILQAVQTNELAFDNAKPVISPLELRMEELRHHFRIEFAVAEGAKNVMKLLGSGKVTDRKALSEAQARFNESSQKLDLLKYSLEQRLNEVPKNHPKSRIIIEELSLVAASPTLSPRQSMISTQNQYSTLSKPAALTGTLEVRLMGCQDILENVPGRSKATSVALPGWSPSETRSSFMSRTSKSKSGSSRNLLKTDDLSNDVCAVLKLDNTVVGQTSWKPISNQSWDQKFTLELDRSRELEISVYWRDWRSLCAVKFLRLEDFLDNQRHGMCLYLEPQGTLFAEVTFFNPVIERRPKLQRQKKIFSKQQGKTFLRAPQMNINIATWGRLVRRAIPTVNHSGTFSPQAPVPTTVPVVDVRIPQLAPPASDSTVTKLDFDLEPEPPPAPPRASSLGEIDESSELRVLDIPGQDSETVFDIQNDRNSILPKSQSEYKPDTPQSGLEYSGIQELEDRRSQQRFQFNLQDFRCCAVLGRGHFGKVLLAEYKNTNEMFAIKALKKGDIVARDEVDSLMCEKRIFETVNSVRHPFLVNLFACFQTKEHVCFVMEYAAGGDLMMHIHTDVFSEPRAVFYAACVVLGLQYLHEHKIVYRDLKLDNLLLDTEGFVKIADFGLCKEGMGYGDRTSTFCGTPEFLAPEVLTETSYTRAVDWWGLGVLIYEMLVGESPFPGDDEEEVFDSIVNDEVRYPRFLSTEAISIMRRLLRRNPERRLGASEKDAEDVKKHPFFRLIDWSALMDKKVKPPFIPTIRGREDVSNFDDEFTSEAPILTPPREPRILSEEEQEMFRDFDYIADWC

SMILES | residual kinase activity, PKCγ (PKCγ) | residual kinase activity, S6K1 (S6K1; [1]) | residual kinase activity, PKCz (PKCz) | residual kinase activity, MKK2 (MKK2) | residual kinase activity, ROCK 2 (ROCK 2; [1]) | residual kinase activity, PRK2 (PRK2; [1]) | residual kinase activity, p38b MAPK (p38b MAPK) | further results
CC(=O)Nc1nc2cc(O)ccc2s1 [Compound 01-66, N-(5-hydroxybenzo[d]thiazol-2-yl)acetamide] | – | – | – | – | – | – | – | remaining activity at 100 µM (MLK3): 41%; remaining activity at 100 µM (MSK1): 62%; remaining activity at 100 µM (PKCγ; read-out: residual kinase activity, PKCγ): 99%; remaining activity at 100 µM (S6K1): 54%; remaining activity at 100 µM (PKCz; read-out: residual kinase activity, PKCz): 98%; remaining activity at 100 µM (LKB1): 38%; remaining activity at 100 µM (TrkA): 57%; remaining activity at 100 µM (MKK2; read-out: residual kinase activity, MKK2): 42%; remaining activity at 100 µM (ROCK 2): 56%; remaining activity at 100 µM (PRK2): 67%; remaining activity at 100 µM (NEK6): 82%; remaining activity at 100 µM (p38b MAPK; read-out: residual kinase activity, p38b MAPK): 92%; remaining activity at 100 µM (SRPK1): 59%; remaining activity at 100 µM (HER4): 40%; remaining activity at 100 µM (TAK1): 30%
CC(=O)Nc1cccc(C(=O)Nc2nc3ccc(O)cc3s2)c1 [Compound 03-58] | 86 | 9 | 84 | 86 | 10 | 36 | 75 | –
CC(=O)NC(C)C(=O)Nc1nc2ccc(C(F)(F)F)cc2s1 (centres unmarked) [Compound 03-80] | 87 | 97 | 75 | 75 | 80 | 79 | 77 | –
CC(=O)Nc1ccccc1C(=O)Nc1nc2ccc(O)cc2s1 [Compound 08-39] | 44 | 12 | 38 | 78 | 22 | 42 | 96 | –
CC(=O)Nc1nc2ccc([N+](=O)[O-])cc2s1 [Compound 13-10] | – | – | – | – | – | – | – | remaining activity at 100 µM (MLK3; [1]): 54%; remaining activity at 100 µM (MSK1; [1]): 92%; remaining activity at 100 µM (S6K1; [1]): 65%; remaining activity at 100 µM (LKB1; [1]): 73%; remaining activity at 100 µM (TrkA; [1]): 98%; remaining activity at 100 µM (ROCK 2; [1]): 96%; remaining activity at 100 µM (PRK2; [1]): 93%; remaining activity at 100 µM (NEK6; [1]): 92%; remaining activity at 100 µM (SRPK1; [1]): 62%; remaining activity at 100 µM (HER4; [1]): 81%; remaining activity at 100 µM (TAK1; [1]): 58%
COc1cccc(NC(=O)Nc2nc3cc(O)ccc3s2)c1 [Compound 13-62] | – | – | – | – | – | – | – | residual kinase activity, MLK3 (MLK3; [2]): 13; residual kinase activity, MSK1 (MSK1; [2]): 41; residual kinase activity, S6K1 (S6K1; [2]): 22; residual kinase activity, LKB1 (LKB1; [2]): 91; residual kinase activity, TrkA (TrkA; [2]): 9; residual kinase activity, ROCK 2 (ROCK 2; [2]): 11; residual kinase activity, PRK2 (PRK2; [2]): 40; residual kinase activity, NEK6 (NEK6; [2]): 104; residual kinase activity, SRPK1 (SRPK1; [2]): 3; residual kinase activity, HER4 (HER4; [2]): 13; residual kinase activity, TAK1 (TAK1; [2]): 11
COc1ccc2sc(NC(=O)c3ccc(NC(C)=O)cc3)nc2c1 [MS:LY-2-77] | 94 | 94 | 107 | 95 | 96 | 92 | 110 | –
COc1ccc2sc(NC(=O)c3cccc(NC(C)=O)c3)nc2c1 [MS:LY-2-85] | 80 | 50 | 101 | 80 | 29 | 66 | 92 | –
CC(=O)Nc1ccc(C(=O)Nc2nc3cc(O)ccc3s2)cc1 [MS:LY-2-87] | 74 | 39 | 83 | 73 | 38 | 67 | 82 | –
CC(=O)Nc1cccc(C(=O)Nc2nc3cc(O)ccc3s2)c1 [MS:LY-2-89] | 63 | 14 | 80 | 47 | 11 | 44 | 17 | –

— patent US10231954B2, “Neurodegenerative therapies” (LYTIX BIOPHARMA AS, priority 2014, dated 2019)
